The record followed here is US10548883B2, “Benzotriazole-derived α and β-unsaturated amide compound used as TGF-β RI inhibitor” (GENFLEET THERAPEUTICS (SHANGHAI) INC., priority 2016, dated 2020).

“And” between values parts separate entries of the source, which are not always exact repeats. Equal entries are not always repeated.

The IC50 is the midpoint of a concentration-inhibition curve. Low values mean greater potency in that assay, high ones weaker potency in that assay.

In assay [1] the test system is NIH/3T3 mouse embryonic cells. In words: Test of proliferation inhibition on NIH/3T3 mouse embryonic cells (CellTiter-Glo, with TGF-β1). Format: cell-based. To be noted: NIH3T3, 0.2 ng/mL TGF-β1, 72 h. The protocol: Promega's Luminescent Cell Viability Assay (CellTiter-Glo® method, i.e. ATP fluorescence activity detection and analysis), the compound is added to the cell culture plate for incubation. A substrate buffer for detecting intracellular ATP content was added on the day of detection. Slightly shake and centrifuge at 1000 rpm for 1 min. Tested after standing for 10 min. The assay plate was analyzed using Envision multifunctional enzyme marker of PerkinElmer, Inc., and the analysis mode was fluorescence detection, and the data was expressed by the reading of chemiluminescence signal at 400-700 nm.
i) When the cell growth coverage is about 70%, the cell layer was washed with 10 mL of Duchenne phosphate buffer (D-PBS) which is calcium- and magnesium-free, then 2 mL of 0.25% trypsin-EDTA digest was added. The cell culture flask was placed in a CO2 carbon dioxide incubator at 37° C. and incubated for 3-5 min, then 8 mL of complete culture medium containing 2% FBS DMEM cells was added, and the cells were puffed evenly into single cell and counted by Vi-cell cytometer, and NIH/3T3 cell suspension was diluted to 0.375×10^5/mL cells.
ii) 50 μL of 2% DMEM-containing medium was added around the 384-well cell culture plate, then 40 μL of cell suspension was added to the remaining wells to 1500 cells per well. The distribution of the cells was observed under a microscope, and the cell plates were placed in a cell culture incubator with 5% CO2 at 37° C.
iii) Dilution of the compound refers to the preparation of the compound.
iv) A mixture of 2% fetal bovine serum containing 1 ng/mL TGF-β1 in DMEM medium was added manually to the compound intermediate plate, 20 μL per well.
v) The compound intermediate plate was shook slightly for 10 sec at 1000 rpm/min and centrifuge for 10 sec.
vi) 10 uL of the mixed liquid from steps 4 and 5 of each well was transferred to the inoculated cell plate to a final volume of 50 μL by using a Bravo liquid workstation, and the final concentration of TGF-β1 was diluted to 0.2 ng/mL, and centrifuged for 10 sec at 1000 rpm/min. The plates were placed in an incubator with 5% carbon dioxide at 37° C., 5% carbon dioxide for 72 h. The final concentration of the compound is: (unit: μM)
vii) The cell plate containing the compound was cultured in a cell incubator with 5% CO2 at 37° C. for 3 days.
viii) After that, 25 μL of ATP fluorescence activity detection solution was added to each well of the cell plate, then shook gently for about 1 min and centrifuged at 500 rpm/min for about 30 sec, and the reading was performed in an Envision instrument after standing at room temperature for 10 min in the dark.
Background: In ATP-based viability assays light output follows the ATP content of the culture.

The test system of another assay is CT-26 cells. As to the kind of experiment: Tumor cell proliferation inhibition in BALB/c mouse model of subcutaneously transplanted CT-26 cells, alone or combined with BioXcell-mPD-L1. Format: in vivo. To be noted: for Tumor volume: average ± SEM, small molecules 75 mg/kg PO twice a day, BioXcell-mPD-L1 10 mg/kg IP twice a week. Here is the method:
The following table lists the animal grouping and dosing regimen of embodiment 1, the positive reference compound LY2157299 and the BioXcell PD-L1 monoclonal antibody (BioXcell-mPD-L1), which are used alone or in combination in vivo.
Mouse colon cancer CT-26 cells were cultured in vitro in a single layer, and culture conditions is RPMI1640 medium (Medium No. 1640, Roswell Parker Memorial Institute) supplemented with 10% fetal bovine serum at 37° C., 5% CO2. Passage was routinely digested with trypsin-EDTA twice a week. When the cell saturation is 80%-90%, the cells are collected, counted, and inoculated.
0.1 mL (1×10^5) CT-26 cells were subcutaneously inoculated into the right back of each BALB/c mouse. The mice were administered in groups according to the body weight of the mice on the second day after cell inoculation.
The experimental indicator is to investigate whether tumor growth is inhibited, delayed or cured. Tumor diameters were measured with Vernier calipers twice a week. The tumor volume is calculated as: V=0.5a×b^2, and a and b represent the long and short diameters of the tumor, respectively.
The antitumor effect of the compound was evaluated by TGI (%) or tumor proliferation rate T/C (%). TGI (%) reflects the tumor growth inhibition rate. Calculation of TGI (%): TGI (%)=[(1-(mean tumor volume at the end of administration of a treatment group—mean tumor volume at the start of administration of the treatment group))/(mean tumor volume at the end of treatment of the solvent control group)—mean tumor volume at the start of treatment of the solvent control group)]×100%.
Tumor proliferation rate T/C (%): The formula is as follows: T/C %=T/C×100% (T: treatment group; C: negative control group).
Tumor weights were measured after the end of the experiment and the percentage of T/Cweight was calculated. Tweight and Cweight represent the tumor weights of the drug-administered group and the vehicle control group, respectively.
Statistical analysis, including mean and standard error (SEM) of tumor volume at each time point for each group (see Table 4 for specific data). […] T-test was used for comparison between the two groups, and one-way analysis of variance was used for comparison between three or more groups. If there was a significant difference in F values, the Gass-Howell method was used to test. If there is no significant difference in F values, the Dunnet (2-sided) method is used for analysis. All data analysis was performed with SPSS 17.0. A significant difference was considered at p<0.05.

Regarding `Cc1cccc(-c2nn3c(c2-c2ccc4ncnn4c2/C=C/C(N)=O)CCC3)n1` [Embodiment 1], the IC50 in assay [1] was 500 to 2000 nM. Further, the Tumor volume was 102 ± 19 mm^3 in the assay with CT-26 cells (day 10 of administration); 339 ± 89 mm^3 in the assay with CT-26 cells (day 13 of administration); 552 ± 147 mm^3 in the assay with CT-26 cells (day 15 of administration); 874 ± 240 mm^3 in the assay with CT-26 cells (day 17 of administration); 1331 mm^3 and 1331 ± 394 mm^3 in the assay on CT-26 cells (day 20 of administration). For the same molecule, the “Tumor proliferation rate T/C” value in the assay with CT-26 cells (twenty days after start of administration, 75 mg/kg PO and/or 10 mg/kg IP) came to 51%. Also, the “Antitumor effect compared with the solvent control group” value in the assay with CT-26 cells (twenty days after start of administration, 75 mg/kg and/or 10 mg/kg) is “no significant antitumor effect”.
